Source: paper PMC5635695, “More than Enzymes That Make or Break Cyclic Di-GMP—Local Signaling in the Interactome of GGDEF/EAL Domain Proteins of Escherichia coli” (mBio, 2017)

Target: T1, CdgI GGDEF domain (GGDEF^CdgI) (Escherichia coli, UniProt P76236)
T1 construct: isolated cytoplasmic GGDEF domain (degenerate A-site, intact I-site), N-terminal MASE4 membrane domain removed; N-terminal His6 tag kept; pQE30xa in E. coli Fi8202
Assay: UV cross-linking with [alpha-32P]c-di-GMP, SDS-PAGE
Format: binding
Conditions: 42 nM radiolabelled c-di-GMP, competition with unlabelled c-di-GMP; labelled compound

T1 sequence (P76236 315-491): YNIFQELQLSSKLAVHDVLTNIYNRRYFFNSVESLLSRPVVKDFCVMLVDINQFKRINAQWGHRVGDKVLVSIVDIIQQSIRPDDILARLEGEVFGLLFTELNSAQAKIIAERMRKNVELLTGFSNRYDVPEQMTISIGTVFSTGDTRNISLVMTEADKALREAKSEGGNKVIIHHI

## Nc1nc2c(ncn2[C@@H]2O[C@@H]3COP(=O)(O)O[C@H]4[C@@H](O)[C@H](n5cnc6c(=O)[nH]c(N)nc65)O[C@@H]4COP(=O)(O)O[C@H]3[C@H]2O)c(=O)[nH]1 [c-di-GMP]
  UV cross-linking with [alpha-32P]c-di-GMP, SDS-PAGE: We observed that purified CdgI could indeed bind c-di-GMP
